Experimental data taken from patent publication US20250195521A1 (Revolution Medicines, Inc., priority 2020, published 2025).

What was measured:
NCI-H358 (K-Ras G12C) = assay: CellTiter-Glo cell viability assay, NCI-H358; format: cell-based, human; settings: Homo sapiens, NCI-H358, 120 h, 5-day treatment; read-out: H358 Cell Viability assay data (K-Ras G12C, IC50)
How it was run: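 After direct compound addition, plates were incubated to day 5 and equilibrated at room temperature for about 30 minutes before CellTiter-Glo reading. Values derive from luminescence relative to the DMSO mean, fitted with a four-parameter logistic model.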

[1] = test system: NCI-H358 cells (K-Ras G12C); assay: CellTiter-Glo cell viability, NCI-H358; format: cell-based, human; settings: Homo sapiens, NCI-H358, 120 h, K-Ras G12C, 5-day treatment; read-out: H358 Cell Viability IC50
How it was run: (§1)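 Endpoint: CellTiter-Glo luminescence on day 5, following ~30 min at room temperature. Data as (sample/mean DMSO)×100, four-parameter logistic fit.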

KRAS G12V = KRAS G12V (Homo sapiens (Human), UniProt P01116+P62937, G12V); assay: Ras-Raf disruption/FRET/MOA assay (BRAF RBD, Cyclophilin A); format: biochemical; settings: read-out: KRAS G12V FRET IC50
How it was run: (§2)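 25 μM tagless Cyclophilin A, 12.5 nM His6-Ras-GMPPNP and 50 nM GST-BRAF RBD in HEPES pH 7.3 buffer with 5 mM MgCl2, with compound (10-point 3-fold series from 30 μM final) for 3 h at 25 °C. Anti-His Eu and anti-GST APC then added for 1.5 h. IC50 from TR-FRET ratio decrease versus DMSO.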

KRAS G13C = KRAS G13C (Homo sapiens (Human), UniProt P01116+P62937, G13C); assay: as above; format: biochemical; settings: read-out: KRAS G13C FRET IC50
How it was run: as §2

KRAS G13D = KRAS G13D (Homo sapiens (Human), UniProt P01116+P62937, G13D); assay: as above; format: biochemical; settings: read-out: KRAS G13D FRET data IC50
How it was run: as §2

KRAS G12D = KRAS G12D (Homo sapiens (Human), UniProt P01116+P62937, G12D); assay: as above; format: biochemical; settings: read-out: KRAS G12D FRET IC50
How it was run: as §2

KRAS G12S = KRAS G12S (Homo sapiens (Human), UniProt P01116+P62937, G12S); assay: as above; format: biochemical; settings: read-out: KRAS G12S FRET IC50
How it was run: as §2

KRAS WT = KRAS WT (Homo sapiens (Human), UniProt P01116+P62937); assay: as above; format: biochemical; settings: read-out: KRAS WT FRET data IC50
How it was run: as §2

NRAS G12C = NRAS G12C (Homo sapiens (Human), UniProt P01111+P62937, G12C); assay: as above; format: biochemical; settings: read-out: NRAS G12C FRET data IC50
How it was run: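 Ras-GMPPNP (12.5 nM), BRAF RBD (50 nM) and 25 μM Cyclophilin A were incubated with compound for 3 h at 25° C, then detected 1.5 h with anti-His Eu and anti-GST APC; IC50 values follow from the reduced TR-FRET ratio.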

KRAS G12C = KRAS G12C (Homo sapiens (Human), UniProt P01116+P62937, G12C); assay: as above; format: biochemical; settings: read-out: KRAS G12C FRET IC50
How it was run: as §2

[2] = test system: K-Ras G12C (NCI-H358 cells); assay: Potency assay: pERK in NCI-H358 cells; format: cell-based, human; settings: Homo sapiens; NCI-H358 cells, 4 hours; read-out: pERK EC50 (H358 KRAS G12C)
How it was run: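 Cells plated the day before were exposed for 4 h at 37° C, 5% CO2 to a 10-point, 3-fold DMSO dilution series (10 mM top stock), in duplicate. Phospho-ERK was read by AlphaLISA SureFire Ultra or by In-Cell Western with DRAQ5 DNA stain, and IC50 came from a 4-parameter sigmoidal fit.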

[3] = test system: Capan-1 cells (K-Ras G12V); assay: CellTiter-Glo cell viability, Capan-1; format: cell-based, human; settings: Homo sapiens, CAPAN-1, 120 h, K-Ras G12V, 5-day treatment; read-out: Capan-1 Cell Viability IC50
How it was run: as §1

KRAS G12C, sequence (P01116-2 other isoform, or with tags, fused parts or gaps G12C): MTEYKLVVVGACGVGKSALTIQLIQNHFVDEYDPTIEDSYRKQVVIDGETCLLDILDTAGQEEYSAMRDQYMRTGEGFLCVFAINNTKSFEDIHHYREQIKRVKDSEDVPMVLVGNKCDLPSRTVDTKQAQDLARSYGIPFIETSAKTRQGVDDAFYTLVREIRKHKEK
KRAS G12C, sequence (P62937 whole entry): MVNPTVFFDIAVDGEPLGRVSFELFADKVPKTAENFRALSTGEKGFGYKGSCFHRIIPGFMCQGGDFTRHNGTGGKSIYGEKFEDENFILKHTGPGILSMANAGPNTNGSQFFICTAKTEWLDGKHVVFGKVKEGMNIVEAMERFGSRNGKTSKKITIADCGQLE
KRAS G13C, sequence (P01116 other isoform, or with tags, fused parts or gaps G13C): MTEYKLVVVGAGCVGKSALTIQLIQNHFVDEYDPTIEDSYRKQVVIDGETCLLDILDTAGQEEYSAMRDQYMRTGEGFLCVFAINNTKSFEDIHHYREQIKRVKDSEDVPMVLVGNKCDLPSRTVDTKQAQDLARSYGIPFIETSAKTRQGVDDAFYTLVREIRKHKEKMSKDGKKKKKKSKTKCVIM
KRAS G13C, sequence (P62937 whole entry): as the sequence (P62937 whole entry) above
KRAS G13D, sequence (P01116 other isoform, or with tags, fused parts or gaps G13D): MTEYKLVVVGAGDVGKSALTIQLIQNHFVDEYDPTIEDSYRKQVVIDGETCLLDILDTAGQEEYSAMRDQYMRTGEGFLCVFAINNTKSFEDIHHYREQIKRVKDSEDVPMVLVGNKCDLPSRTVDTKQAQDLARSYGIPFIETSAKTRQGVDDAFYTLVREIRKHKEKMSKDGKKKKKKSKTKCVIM
KRAS G13D, sequence (P62937 whole entry): as the sequence (P62937 whole entry) above
KRAS G12D, sequence (P01116 other isoform, or with tags, fused parts or gaps G12D): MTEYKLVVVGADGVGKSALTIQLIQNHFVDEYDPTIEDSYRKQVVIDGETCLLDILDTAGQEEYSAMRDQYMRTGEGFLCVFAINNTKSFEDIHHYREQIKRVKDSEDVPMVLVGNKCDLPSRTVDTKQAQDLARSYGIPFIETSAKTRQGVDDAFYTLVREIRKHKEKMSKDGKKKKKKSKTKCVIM
KRAS G12D, sequence (P62937 whole entry): as the sequence (P62937 whole entry) above
KRAS WT, sequence (P01116 other isoform, or with tags, fused parts or gaps): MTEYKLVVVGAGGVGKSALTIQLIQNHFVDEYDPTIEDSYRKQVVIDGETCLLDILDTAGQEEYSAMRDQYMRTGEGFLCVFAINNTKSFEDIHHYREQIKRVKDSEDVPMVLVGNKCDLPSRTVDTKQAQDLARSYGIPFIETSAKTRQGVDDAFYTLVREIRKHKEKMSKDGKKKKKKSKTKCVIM
KRAS WT, sequence (P62937 whole entry): as the sequence (P62937 whole entry) above
KRAS G12S, sequence (P01116 other isoform, or with tags, fused parts or gaps G12S): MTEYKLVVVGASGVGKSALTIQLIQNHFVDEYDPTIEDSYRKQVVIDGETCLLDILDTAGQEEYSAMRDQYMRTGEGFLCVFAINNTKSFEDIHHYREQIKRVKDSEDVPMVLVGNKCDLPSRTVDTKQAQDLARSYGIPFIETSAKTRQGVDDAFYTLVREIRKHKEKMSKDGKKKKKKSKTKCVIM
KRAS G12S, sequence (P62937 whole entry): as the sequence (P62937 whole entry) above
NRAS G12C, sequence (P01111 whole entry G12C): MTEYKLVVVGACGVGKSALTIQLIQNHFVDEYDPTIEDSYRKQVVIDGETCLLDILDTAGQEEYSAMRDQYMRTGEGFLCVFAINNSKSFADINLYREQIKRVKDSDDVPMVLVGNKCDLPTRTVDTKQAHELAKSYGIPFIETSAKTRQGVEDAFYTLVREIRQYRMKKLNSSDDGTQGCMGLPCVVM
NRAS G12C, sequence (P62937 whole entry): as the sequence (P62937 whole entry) above
KRAS G12V, sequence (P01116 other isoform, or with tags, fused parts or gaps G12V): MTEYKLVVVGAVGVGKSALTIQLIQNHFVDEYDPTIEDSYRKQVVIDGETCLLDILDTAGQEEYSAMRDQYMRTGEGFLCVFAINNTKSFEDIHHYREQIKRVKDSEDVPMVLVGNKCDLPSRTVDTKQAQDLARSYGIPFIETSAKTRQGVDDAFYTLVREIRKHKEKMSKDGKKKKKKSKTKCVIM
KRAS G12V, sequence (P62937 whole entry): as the sequence (P62937 whole entry) above

IC50 (NCI-H358 (K-Ras G12C)) [nM]	IC50 [1] [nM]	IC50 (KRAS G12V) [nM]	IC50 (KRAS G13C) [nM]	IC50 (KRAS G13D) [nM]	IC50 (KRAS G12D) [nM]	IC50 (KRAS G12S) [nM]	IC50 (KRAS WT) [nM]	IC50 (NRAS G12C) [nM]	IC50 (KRAS G12C) [nM]	EC50 [2] [nM]	Structure (SMILES)	IC50 [3] [nM]
	100 to 1000	100 to 1000	100 to 1000	100 to 1000	100 to 1000	100 to 1000	10 to 100	100 to 1000	10 to 100	< 5000	CCn1c(-c2cccnc2[C@H](C)OC)c2c3cc(ccc31)-c1cc(O)cc(c1)C[C@H](NC(=O)[C@H](C(C)C)N(C)C(=O)C13CCC(CC1)O3)C(=O)N1CCC[C@H](N1)C(=O)OCC(C)(C)C2 [Compound A412]	100 to 1000
	100 to 1000	100 to 1000	10 to 100	100 to 1000	100 to 1000	100 to 1000	10 to 100	10 to 100	10 to 100	< 5000	CCn1c(-c2cccnc2[C@H](C)OC)c2c3cc(ccc31)-c1cc(O)cc(c1)C[C@H](NC(=O)[C@H](C(C)C)N(C)C(=O)C1CC3(CCOCC3)CO1)C(=O)N1CCC[C@H](N1)C(=O)OCC(C)(C)C2 (some centres unmarked) [Compound A413]	100 to 1000
	100 to 1000	100 to 1000	10 to 100	100 to 1000	100 to 1000	10 to 100	100 to 1000	10 to 100	10 to 100	< 5000	CCn1c(-c2cccnc2[C@H](C)OC)c2c3cc(ccc31)-c1cc(O)cc(c1)C[C@H](NC(=O)[C@H](C(C)C)N(C)C(=O)[C@H]1CC[C@@H](C(N)=O)O1)C(=O)N1CCC[C@H](N1)C(=O)OCC(C)(C)C2 [Compound A414]	1000 to 10000
	100 to 1000	100 to 1000	100 to 1000	100 to 1000	100 to 1000	100 to 1000	100 to 1000	100 to 1000	100 to 1000	< 5000	CCn1c(-c2cccnc2[C@H](C)OC)c2c3cc(ccc31)-c1cc(O)cc(c1)C[C@H](NC(=O)[C@H](C(C)C)N(C)C(=O)C1(C(F)F)CCCO1)C(=O)N1CCC[C@H](N1)C(=O)OCC(C)(C)C2 (some centres unmarked) [Compound A416]	100 to 1000
	100 to 1000	100 to 1000	10 to 100	100 to 1000	100 to 1000	10 to 100	10 to 100	10 to 100	10 to 100	< 5000	CCn1c(-c2cccnc2[C@H](C)OC)c2c3cc(ccc31)-c1cc(O)cc(c1)C[C@H](NC(=O)[C@H](C(C)C)N(C)C(=O)[C@@H]1COC[C@@H]1N)C(=O)N1CCC[C@H](N1)C(=O)OCC(C)(C)C2 [Compound A418]	1000 to 10000

Further lines, the compound ahead of its results:

Structure (SMILES)	IC50 (NCI-H358 (K-Ras G12C)) [nM]	IC50 [1] [nM]	IC50 (KRAS G12V) [nM]	IC50 (KRAS G13C) [nM]	IC50 (KRAS G13D) [nM]	IC50 (KRAS G12D) [nM]	IC50 (KRAS G12S) [nM]	IC50 (KRAS WT) [nM]	IC50 (NRAS G12C) [nM]	IC50 (KRAS G12C) [nM]	EC50 [2] [nM]	IC50 [3] [nM]
CCn1c(-c2cnccc2COC)c2c3cc(ccc31)-c1cc(O)cc(c1)C[C@H](NC(=O)[C@H](C(C)C)N(C)C(=O)[C@H]1CCN(C(=O)CO)C1)C(=O)N1CCC[C@H](N1)C(=O)OCC(C)(C)C2 [Compound A20]	10 to 100	1000 to 10000	100 to 1000	100 to 1000	100 to 1000	1000 to 10000	100 to 1000	100 to 1000	100 to 1000	10 to 100	< 5000	
CCn1c(-c2cnccc2COC)c2c3cc(ccc31)-c1cc(O)cc(c1)C[C@H](NC(=O)[C@H](C(C)C)N(C)C(=O)[C@H]1CCN(C[C@@H](C)O)C1)C(=O)N1CCC[C@H](N1)C(=O)OCC(C)(C)C2 [Compound A31]	10 to 100	> 10000	1000 to 10000	10 to 100	100 to 1000	100 to 1000	100 to 1000	100 to 1000	100 to 1000	100 to 1000	< 5000	
CCn1c(-c2cnccc2COC)c2c3cc(ccc31)-c1cc(O)cc(c1)C[C@H](NC(=O)[C@H](C(C)C)N(C)C(=O)CNC(=N)N)C(=O)N1CCC[C@H](N1)C(=O)OCC(C)(C)C2 [Compound A68]	100 to 1000	> 10000	100 to 1000	10 to 100	100 to 1000	100 to 1000	10 to 100	100 to 1000	100 to 1000	10 to 100		
CCn1c(-c2cccnc2[C@H](C)OC)c2c3cc(ccc31)-c1csc(n1)C[C@H](NC(=O)[C@H](C(C)C)N(C)C(=O)N1CC(OC(F)(F)F)C1)C(=O)N1CCC[C@H](N1)C(=O)OCC(C)(C)C2 [Compound A330]		10 to 100	100 to 1000	100 to 1000	100 to 1000	1000 to 10000	100 to 1000	100 to 1000	10 to 100	10 to 100	< 5000	10 to 100
CCN(C)C(=O)N(C)[C@H](C(=O)N[C@H]1Cc2nc(cs2)-c2ccc3c(c2)c(c(-c2cccnc2[C@H](C)OC)n3CC)CC(C)(C)COC(=O)[C@@H]2CCCN(N2)C1=O)C(C)C [Compound A336]		10 to 100	100 to 1000	100 to 1000	100 to 1000	100 to 1000	100 to 1000	10 to 100	10 to 100	10 to 100	< 5000	10 to 100
CCn1c(-c2cccnc2[C@H](C)OC)c2c3cc(ccc31)-c1cc(O)cc(c1)C[C@H](NC(=O)[C@H](C(C)C)N(C)C(=O)[C@@H]1CCN(C(=O)[C@]3(C)CCCN3C)C1)C(=O)N1CCC[C@H](N1)C(=O)OCC(C)(C)C2 [Compound A342]		10 to 100	10 to 100	10 to 100	10 to 100	10 to 100	10 to 100	10 to 100	10 to 100	10 to 100	< 5000	100 to 1000
CCn1c(-c2cccnc2[C@H](C)OC)c2c3cc(ccc31)-c1csc(n1)C[C@H](NC(=O)[C@H](C(C)C)N(C)C(=O)N1CC(N)C1)C(=O)N1CCC[C@H](N1)C(=O)OCC(C)(C)C2 [Compound A343]		100 to 1000	100 to 1000	100 to 1000	100 to 1000	100 to 1000	100 to 1000	100 to 1000	10 to 100	10 to 100	< 5000	100 to 1000
CCn1c(-c2cccnc2[C@H](C)OC)c2c3cc(ccc31)-c1cc(O)cc(c1)C[C@H](NC(=O)[C@H](C(C)C)N(C)C(=O)[C@H]1CCN(C(=O)OC3CN(C)C3)C1)C(=O)N1CCC[C@H](N1)C(=O)OCC(C)(C)C2 [Compound A348]		10 to 100	10 to 100	10 to 100	10 to 100	10 to 100	10 to 100	10 to 100	10 to 100	10 to 100	< 5000	100 to 1000
CCn1c(-c2cccnc2[C@H](C)OC)c2c3cc(ccc31)-c1cc(O)cc(c1)C[C@H](NC(=O)[C@H](C(C)C)N(C)C(=O)[C@H]1CCN(C(=O)[C@@]3(C)CCCN3C)C1)C(=O)N1CCC[C@H](N1)C(=O)OCC(C)(C)C2 [Compound A379]		10 to 100	10 to 100	10 to 100	10 to 100	10 to 100	10 to 100	10 to 100	10 to 100	10 to 100	< 5000	100 to 1000
CCn1c(-c2cccnc2[C@H](C)OC)c2c3cc(ccc31)-c1cc(O)cc(c1)C[C@H](NC(=O)[C@H](C(C)C)N(C)C(=O)[C@H]1[C@@H](N)[C@@H]3CC[C@H]1O3)C(=O)N1CCC[C@H](N1)C(=O)OCC(C)(C)C2 [Compound A421]		100 to 1000	1000 to 10000	10 to 100	100 to 1000	100 to 1000	100 to 1000	100 to 1000	100 to 1000	100 to 1000	< 5000	1000 to 10000
